Test results reported in US9877981B2, “NAD biosynthesis and precursors for the treatment and prevention of cancer and proliferation” (President and Fellows of Harvard College, priority 2012, dated 2018).

What was measured:
[1] = tested on: AKT and IRS-1 phosphorylation; assay: Insulin signaling immunoblot (p-AKT, p-IRS-1) in muscle of treated mice; type: in vivo; conditions: old mice treated with NMN; soleus
Description: C57BL/6J mice of 6, 22, or 30 months of age were obtained from the National Institutes of Aging mouse aging colony. Additionally 22 months old caloric restricted mice were also obtained from the National Institutes of Aging mouse aging colony. EGLN1 KO, SIRT1 KO and SIRT1 OE mice were generated as previously described (Minamishima et al., 2008; Price et al., 2012). Mice were acclimated for at least one-week prior to sacrifice. 3, 6, 22 and 24-month-old mice were given interperitoneal (IP) injections of 500 mg NMN/kg body weight per day or the equivalent volume of PBS for 7 consecutive days at 5:00 pm and 7:00 am on day 8 and sacrificed 4 hr after last injection.
Protein extracts from tissue or C2C12 cells were obtained by lysis in ice-cold lysis buffer (150 mM NaCl, 10 mM Tris HCl (pH 7.4), 1 mM EDTA, 1 mM EGTA, 1% Triton X-100, 0.5% NP-40) supplemented with a cocktail of protease and phosphatase inhibitors (Roche). Protein content was determined by the Bradford protein assay (Biorad), and 50 μg proteins were run on SDS-PAGE under reducing conditions. The separated proteins were then electrophoretically transferred to a polyvinylidene difluoride membrane (Perkin-Elmer). […] The immunostaining was detected using horseradish peroxidase-conjugated anti-rabbit or anti-mouse immunoglobulin for 1 h at room temperature.

[2] = tested on: HIF-1α target genes (PGK-1, Glut1, PDK1 and Vegfa); assay: qPCR of HIF-1α target genes in gastrocnemius of treated mice; type: in vivo; conditions: 3- and 24-month-old mice, NMN 500 mg/kg IP one week
Procedure: C57BL/6J mice of 3, 6, 22, 24, or 30 months of age were obtained from the National Institutes of Aging mouse aging colony. Mice were acclimated for at least one-week prior to sacrifice. 3, and 24-month-old mice were given interperitoneal (IP) injections of 500 mg NMN/kg body weight per day or the equivalent volume of PBS for 7 consecutive days at 5:00 pm and 7:00 am on day 8 and sacrificed 4 hr after last injection. All animal studies followed the guidelines of and were approved by the Harvard Institutional Animal Care and Use Committee
RNA from skeletal muscle tissue and C2C12 cells were extracted with RNeasy mini kit (Qiagen) according to the instructions and quantified using the NanoDrop 1000 spectrophotometer (Thermo Scientific). cDNA was synthesized with the iSCRIP cDNA synthesis kit (BioRad) using 600 ng of RNA. Quantitative RT-PCR reactions were performed using 1 μM of primers and LightCycler® 480 SYBR Green Master (Roche) on an LightCycler® 480 detection system (Roche). Calculations were performed by a comparative method (2-ΔCT) using 18S as an internal control. […]
RNA from skeletal muscle and aorta were extracted with RNeasy mini kit (Qiagen) according to the instructions and quantified using the NanoDrop 1000 spectrophotometer (Thermo Scientific). cDNA was synthesized with the iSCRIP cDNA synthesis kit (BioRad) using 600 ng of RNA. […]

C2C12 myoblasts = assay: mtDNA content and ETC gene expression in C2C12 myoblasts; type: cell-based, mouse; conditions: C2C12 myoblasts treated with DMOG, 16 h
Procedure: C2C12 cell line (ATCC) was cultured in low glucose Dulbecco's modified eagle medium (DMEM) (Invitrogen) supplemented with 10% FBS (Invitrogen) and a mix of antibiotic and antimycotic (Invitrogen). To inhibit SIRT1, cells were treated the vehicle (0.001% DMSO) or 10 μM EX-527 (Tocris) for 12 h. C2C12 myoblasts were infected with an empty or SIRT1 adenovirus as described before (Gerhart-Hines et al., 2007) and the media was replaced with fresh DMEM for additional 48 h, after that the cells were treated as described before. To test the effects of hypoxia and HIFα stabilization in genome asyncrony, C2C12 myoblasts were exposed to 1% oxygen for 16 h or treated with the vehicle (0.001% DMSO) or DMOG (Cayman) for the same period of time.
RNA from skeletal muscle tissue and C2C12 cells were extracted with RNeasy mini kit (Qiagen) according to the instructions and quantified using the NanoDrop 1000 spectrophotometer (Thermo Scientific). cDNA was synthesized with the iSCRIP cDNA synthesis kit (BioRad) using 600 ng of RNA. Quantitative RT-PCR reactions were performed using 1 μM of primers and LightCycler® 480 SYBR Green Master (Roche) on an LightCycler® 480 detection system (Roche). Calculations were performed by a comparative method (2-ΔCT) using 18S as an internal control. For mtDNA analysis, total DNA was extracted with DNeasy blood and tissue kit (Qiagen). mtDNA was amplified using primers specific for the mitochondrial cytochrome c oxidase subunit 2 (COX2) gene and normalized to genomic DNA by amplification of the ribosomal protein s18 (rps18) nuclear gene. Primers were designed using the IDT software (IDT) and the primer sequences can be found in Table 1.

TFAM promoter = TFAM promoter activity by luciferase assay in primary WT myoblasts; type: cell-based, mouse; conditions: DMOG vs DMSO
Procedure: TFAM promoter, VHL promoter, HRE and c-Myc activity were determined using a luciferase-based system. Luciferase activity was measured using the Dual-Luciferase Reporter Assay System (Promega) with Renilla as the reference.
TFAM promoter activity was evaluated using a TFAM promotes-luc plasmid. A fragment of the mouse Tfam promoter (1.4 kb upstream of the coding sequence) was cloned into a pGL4.15 vector (Promega). Luciferase activity was measured using the Dual-Luciferase Reporter Assay System (Promega) with Renilla as the reference 48 h after transfection.

Row | Structure (SMILES) | age-induced insulin resistance in the skeletal muscle [1] | phosphorylation of AKT and IRS-1 [1] | expression of HIF-1α target genes [2] | expression of mitochondrially-encoded ETC genes (C2C12 myoblasts) | expression of nuclear-encoded ETC components (C2C12 myoblasts) | mtDNA content (C2C12 myoblasts) | full length TFAM promoter activity (TFAM promoter) | TFAM promoter activity with c-Myc consensus sequence mutation (TFAM promoter; c-Myc binding site absent)
1 | NC(=O)c1ccc[n+]([C@@H]2O[C@H](COP(=O)([O-])O)[C@@H](O)[C@H]2O)c1 [NMN, nicotinamide mononucleotide] | reverse age-induced insulin resistance | increasing the phosphorylation | suppressed the expression of HIF-1α target genes | – | – | – | – | –
2 | COC(=O)CNC(=O)C(=O)OC [DMOG, dimethyloxaloylglycine] | – | – | – | specific decline | not the nuclear-encoded components | specific decline in mtDNA content | reduces the full length TFAM promoter activity | does not have an additive effect
